# Measured values taken from article PMC10578352, “Identification of a Protein Arginine Methyltransferase 7 (PRMT7)/Protein Arginine Methyltransferase 9 (PRMT9) Inhibitor” (Journal of Medicinal Chemistry, 2023).
# Assays:
# human recombinant PRMT9 = molecular target: T1, human recombinant PRMT9 (Homo sapiens, UniProt Q6P2P2); test: AlphaLISA PRMT9 activity assay (modified BPS kit, biotinylated SF3B2 peptide); format: biochemical; details: for IC50: PRMT9 0.105 μM, biotinylated SF3B2 (500–519) peptide 100 nM, SAM 25 μM
# T1 construct: human recombinant PRMT9 (2–845; N-terminal FLAG-tag, C-terminal His6-tag); FLAG (N); His6 (C); purchased BPS BioScience 79124
# T1 sequence (Q6P2P2 2-845): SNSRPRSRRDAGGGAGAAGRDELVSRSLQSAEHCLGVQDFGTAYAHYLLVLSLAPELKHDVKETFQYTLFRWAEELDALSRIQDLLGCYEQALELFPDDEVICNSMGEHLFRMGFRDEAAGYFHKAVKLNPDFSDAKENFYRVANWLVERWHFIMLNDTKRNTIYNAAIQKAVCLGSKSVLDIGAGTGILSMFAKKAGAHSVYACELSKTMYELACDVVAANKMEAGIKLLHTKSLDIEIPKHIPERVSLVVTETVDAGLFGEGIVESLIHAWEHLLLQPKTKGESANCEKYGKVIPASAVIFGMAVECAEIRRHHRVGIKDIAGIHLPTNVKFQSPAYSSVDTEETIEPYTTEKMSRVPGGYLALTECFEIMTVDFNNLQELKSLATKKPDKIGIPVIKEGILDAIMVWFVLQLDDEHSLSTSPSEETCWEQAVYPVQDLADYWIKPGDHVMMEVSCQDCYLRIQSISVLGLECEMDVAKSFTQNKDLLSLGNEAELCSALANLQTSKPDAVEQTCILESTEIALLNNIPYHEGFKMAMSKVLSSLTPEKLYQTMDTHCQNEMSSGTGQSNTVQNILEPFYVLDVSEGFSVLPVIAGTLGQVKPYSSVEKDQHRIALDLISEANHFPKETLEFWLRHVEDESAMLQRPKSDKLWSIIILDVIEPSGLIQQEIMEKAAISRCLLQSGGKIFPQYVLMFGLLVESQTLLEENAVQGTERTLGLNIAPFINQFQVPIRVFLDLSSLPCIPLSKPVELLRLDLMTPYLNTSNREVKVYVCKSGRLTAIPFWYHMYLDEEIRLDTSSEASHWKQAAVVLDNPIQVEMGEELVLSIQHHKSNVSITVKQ
# Protocol: Accordingly, all the enzymatic inhibition data were obtained by performing the assays in these optimized conditions.
# The reaction was incubated for 60 min. Afterward, in each well, 5 μL of a 1:100 dilution of Primary antibody 28 (BPS BioScience, #52140Z3) in Detection buffer (BPS BioScience) and 5 μL of anti-Rabbit acceptor beads (PerkinElmer, #AL104C) were added to obtain a final concentration of 20 μg/mL.
# For each incubation step, the OptiPlate was sealed with a protective foil to prevent evaporation and contamination. Donor and Acceptor beads were added to the mixture in subdued light.
# The 100% activity (positive control) was reached using vehicle (DMSO), while 0% activity (negative control) was obtained without the protein. Data were analyzed by using Excel and Prism software. Values obtained for each compound are mean ± SD determined for three separate experiments.
# MCF-7 cells = tested on: MCF-7 cells; design: method as in PMID 35482954; details: cited from earlier work
# [1] = tested on: PRMT4-catalyzed arginine methylation in MCF-7 cells; design: method as in PMID 35482954; details: cited from earlier work
# [2] = design: method as in PMID 35482954; details: cited from earlier work
# PRMT1 = molecular target: T2, PRMT1 (Homo sapiens, UniProt Q99873); test: HotSpot radioisotope-based filter assay, PRMT1; format: biochemical; details: 5 μM histone H4, 3H-SAM 1 μM
# T2 construct: PRMT1 (residues 2–371, C-terminus); with an N-terminal GST-tag; GST (N); purchased Reaction Biology Corporation
# T2 sequence (Q99873 2-371): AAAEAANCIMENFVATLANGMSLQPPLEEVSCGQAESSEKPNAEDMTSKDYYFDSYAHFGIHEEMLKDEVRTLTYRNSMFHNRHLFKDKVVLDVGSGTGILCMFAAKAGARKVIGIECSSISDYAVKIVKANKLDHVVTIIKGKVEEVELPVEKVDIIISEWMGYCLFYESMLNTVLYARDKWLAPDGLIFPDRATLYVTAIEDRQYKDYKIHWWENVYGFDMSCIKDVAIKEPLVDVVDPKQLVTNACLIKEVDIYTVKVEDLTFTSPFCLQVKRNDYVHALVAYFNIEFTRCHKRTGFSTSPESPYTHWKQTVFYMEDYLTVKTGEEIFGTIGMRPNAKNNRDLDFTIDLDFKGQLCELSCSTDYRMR
# Protocol: (§1) Then, ^3H-SAM (final concentration of 1 μM) was delivered into the reaction mixture to initiate the reaction. After incubation for 60 min at 30 °C, the reaction mixture was delivered to filter-paper for detection (as assessed by scintillation). Data were analyzed using Excel and GraphPad Prism 6.0 software (GraphPad Software Inc., San Diego, CA) for IC50 curve fits using sigmoidal dose vs response - variable slope (four parameters) equations.
# PRMT4 = molecular target: T3, PRMT4 (Homo sapiens, UniProt Q86X55); test: HotSpot radioisotope-based filter assay, PRMT4; format: biochemical; details: 5 μM histone H3, 3H-SAM 1 μM
# T3 construct: PRMT4 (residues 2–608, C-terminus); with an N-terminal GST-tag; GST (N); purchased Reaction Biology Corporation
# T3 sequence (Q86X55 2-608): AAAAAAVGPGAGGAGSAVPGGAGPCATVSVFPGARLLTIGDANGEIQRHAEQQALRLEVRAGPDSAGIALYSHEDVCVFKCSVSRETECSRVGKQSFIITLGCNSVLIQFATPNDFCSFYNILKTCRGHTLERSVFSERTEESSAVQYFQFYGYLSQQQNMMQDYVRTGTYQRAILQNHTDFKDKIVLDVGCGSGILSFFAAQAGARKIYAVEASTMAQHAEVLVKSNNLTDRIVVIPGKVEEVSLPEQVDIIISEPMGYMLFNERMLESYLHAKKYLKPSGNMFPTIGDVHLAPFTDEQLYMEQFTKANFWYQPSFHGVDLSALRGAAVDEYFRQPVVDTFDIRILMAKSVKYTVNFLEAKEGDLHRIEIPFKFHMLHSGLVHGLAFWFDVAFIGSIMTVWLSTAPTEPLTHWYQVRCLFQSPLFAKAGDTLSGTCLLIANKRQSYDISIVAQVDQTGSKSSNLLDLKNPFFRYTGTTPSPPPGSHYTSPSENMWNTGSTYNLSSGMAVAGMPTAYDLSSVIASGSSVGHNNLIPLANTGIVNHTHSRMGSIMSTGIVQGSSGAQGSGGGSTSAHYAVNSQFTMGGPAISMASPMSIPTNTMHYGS
# Protocol: as §1
# PRMT7 = molecular target: T4, PRMT7 (Homo sapiens, UniProt Q9NVM4); test: HotSpot radioisotope-based filter assay, PRMT7; format: biochemical; details: 5 μM GST-GAR, 3H-SAM 1 μM
# T4 construct: PRMT7 (residues 2–692, C-terminus); with an N-terminal His-tag; His (N); purchased Reaction Biology Corporation
# T4 sequence (Q9NVM4 2-692): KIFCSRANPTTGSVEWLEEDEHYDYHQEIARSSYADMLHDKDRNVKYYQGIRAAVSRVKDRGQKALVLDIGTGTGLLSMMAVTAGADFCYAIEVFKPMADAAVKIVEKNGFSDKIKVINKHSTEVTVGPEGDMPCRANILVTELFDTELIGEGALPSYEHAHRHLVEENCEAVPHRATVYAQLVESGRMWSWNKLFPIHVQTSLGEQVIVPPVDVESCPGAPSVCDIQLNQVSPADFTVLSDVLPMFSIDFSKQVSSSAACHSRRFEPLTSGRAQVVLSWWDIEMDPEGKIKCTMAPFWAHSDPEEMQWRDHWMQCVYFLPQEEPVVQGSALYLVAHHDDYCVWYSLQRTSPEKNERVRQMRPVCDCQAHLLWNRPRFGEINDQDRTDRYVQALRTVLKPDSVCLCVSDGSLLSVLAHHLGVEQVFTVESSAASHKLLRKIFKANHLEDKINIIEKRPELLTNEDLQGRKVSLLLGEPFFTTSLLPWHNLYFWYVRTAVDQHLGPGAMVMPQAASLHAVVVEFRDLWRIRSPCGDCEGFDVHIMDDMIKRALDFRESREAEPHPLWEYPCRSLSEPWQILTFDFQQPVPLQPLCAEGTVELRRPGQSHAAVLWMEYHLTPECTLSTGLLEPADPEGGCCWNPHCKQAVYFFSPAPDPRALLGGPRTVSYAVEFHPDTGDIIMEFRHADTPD
# Protocol: as §1
# PRMT5/MEP50 complex = molecular target: T5, PRMT5/MEP50 complex (Homo sapiens, UniProt O14744); test: HotSpot radioisotope-based filter assay, PRMT5; format: biochemical; details: 5 μM histone H2A, 3H-SAM 1 μM
# T5 construct: residues PRMT5 2–637, C-terminus, and MEP50 2–342, C-terminus; FLAG (N); purchased Reaction Biology Corporation
# T5 sequence (O14744 2-637): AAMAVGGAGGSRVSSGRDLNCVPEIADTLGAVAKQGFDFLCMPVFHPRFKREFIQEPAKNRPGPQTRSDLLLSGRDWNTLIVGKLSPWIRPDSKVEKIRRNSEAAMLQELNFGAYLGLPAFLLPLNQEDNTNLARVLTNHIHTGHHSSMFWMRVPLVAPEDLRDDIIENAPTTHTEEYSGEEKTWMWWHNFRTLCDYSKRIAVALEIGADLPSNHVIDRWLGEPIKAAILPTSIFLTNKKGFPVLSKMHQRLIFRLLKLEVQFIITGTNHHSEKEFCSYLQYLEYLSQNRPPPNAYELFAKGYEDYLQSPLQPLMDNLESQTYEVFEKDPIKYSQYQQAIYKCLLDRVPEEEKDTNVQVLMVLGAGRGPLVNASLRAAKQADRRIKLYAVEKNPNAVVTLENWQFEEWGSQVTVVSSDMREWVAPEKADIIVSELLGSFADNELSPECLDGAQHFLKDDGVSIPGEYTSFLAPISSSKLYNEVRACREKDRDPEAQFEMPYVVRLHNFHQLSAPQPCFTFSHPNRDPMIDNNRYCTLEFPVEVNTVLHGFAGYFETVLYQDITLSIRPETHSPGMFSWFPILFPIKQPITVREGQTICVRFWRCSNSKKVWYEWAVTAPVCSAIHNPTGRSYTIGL
# T5 sequence (Q9BQA1 2-342 partner limits assumed): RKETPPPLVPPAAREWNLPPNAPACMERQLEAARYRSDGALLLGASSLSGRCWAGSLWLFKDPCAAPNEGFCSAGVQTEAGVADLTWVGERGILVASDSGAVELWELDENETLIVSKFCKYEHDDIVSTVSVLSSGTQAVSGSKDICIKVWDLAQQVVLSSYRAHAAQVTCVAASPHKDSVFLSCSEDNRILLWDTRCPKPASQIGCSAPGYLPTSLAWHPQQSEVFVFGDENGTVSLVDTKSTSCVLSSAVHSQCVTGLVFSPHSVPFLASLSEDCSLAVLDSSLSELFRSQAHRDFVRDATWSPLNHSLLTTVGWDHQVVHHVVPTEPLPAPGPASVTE
# Protocol: as §1
# PRMT6 = molecular target: T6, PRMT6 (Homo sapiens, UniProt Q96LA8); test: HotSpot radioisotope-based filter assay, PRMT6; format: biochemical; details: 5 μM GST-GAR, 3H-SAM 1 μM
# T6 construct: PRMT6 (residues 2–375, C-terminus); with an N-terminal GST-tag; GST (N); purchased Reaction Biology Corporation
# T6 sequence (Q96LA8 2-375): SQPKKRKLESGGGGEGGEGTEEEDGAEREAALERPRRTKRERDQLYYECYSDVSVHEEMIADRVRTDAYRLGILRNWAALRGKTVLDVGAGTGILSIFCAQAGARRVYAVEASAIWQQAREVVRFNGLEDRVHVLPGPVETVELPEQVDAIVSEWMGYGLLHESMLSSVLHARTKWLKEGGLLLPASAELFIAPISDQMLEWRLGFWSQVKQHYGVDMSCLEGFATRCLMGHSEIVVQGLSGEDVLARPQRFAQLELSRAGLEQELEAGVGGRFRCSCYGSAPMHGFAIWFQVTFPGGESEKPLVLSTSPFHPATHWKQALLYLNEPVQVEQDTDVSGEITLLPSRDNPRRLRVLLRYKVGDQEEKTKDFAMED
# Protocol: as §1
# PRMT8 = molecular target: T7, PRMT8 (Homo sapiens, UniProt Q9NR22); test: HotSpot radioisotope-based filter assay, PRMT8; format: biochemical; details: 5 μM histone H4, 3H-SAM 1 μM
# T7 construct: (residues 61–394, C-terminus); with C- and N-terminal His-tags; His (N); His (C); purchased Reaction Biology Corporation
# T7 sequence (Q9NR22 61-394): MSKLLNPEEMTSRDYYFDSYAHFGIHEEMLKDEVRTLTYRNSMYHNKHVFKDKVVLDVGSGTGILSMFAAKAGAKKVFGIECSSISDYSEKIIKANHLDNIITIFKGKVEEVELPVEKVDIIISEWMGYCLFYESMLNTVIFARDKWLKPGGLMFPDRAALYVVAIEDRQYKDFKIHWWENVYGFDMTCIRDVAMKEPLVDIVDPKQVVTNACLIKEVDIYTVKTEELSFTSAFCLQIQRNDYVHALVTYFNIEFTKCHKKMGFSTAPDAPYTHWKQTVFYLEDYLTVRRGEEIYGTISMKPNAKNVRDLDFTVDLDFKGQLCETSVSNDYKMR
# Protocol: as §1
# PRMT3 = molecular target: T8, PRMT3 (Homo sapiens, UniProt O60678); test: HotSpot radioisotope-based filter assay, PRMT3; format: biochemical; details: 5 μM histone H4, 3H-SAM 1 μM
# T8 construct: PRMT3 (residues 2–531, C-terminus); with an N-terminal His-tag; His (N); purchased Reaction Biology Corporation
# T8 sequence (O60678 2-531): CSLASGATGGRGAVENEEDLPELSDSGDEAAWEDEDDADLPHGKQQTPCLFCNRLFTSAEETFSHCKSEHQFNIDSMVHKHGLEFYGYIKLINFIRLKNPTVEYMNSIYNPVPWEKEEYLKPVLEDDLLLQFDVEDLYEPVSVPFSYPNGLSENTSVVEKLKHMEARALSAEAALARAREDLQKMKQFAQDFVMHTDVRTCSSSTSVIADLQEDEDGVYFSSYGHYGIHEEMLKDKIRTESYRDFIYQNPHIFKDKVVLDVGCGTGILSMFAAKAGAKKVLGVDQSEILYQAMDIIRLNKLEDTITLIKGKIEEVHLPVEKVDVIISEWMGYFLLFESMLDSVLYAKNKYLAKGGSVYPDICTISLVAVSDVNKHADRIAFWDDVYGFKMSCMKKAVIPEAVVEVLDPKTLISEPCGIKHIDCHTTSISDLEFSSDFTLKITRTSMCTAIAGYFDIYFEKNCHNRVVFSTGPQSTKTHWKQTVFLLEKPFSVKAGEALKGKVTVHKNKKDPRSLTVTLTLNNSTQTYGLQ
# Protocol: as §1
IC50 (human recombinant PRMT9) [µM],IC50 (PRMT1) [µM],IC50 (PRMT4) [µM],reduction in potency against PRMT9 compared to 1a (human recombinant PRMT9; AlphaLISA IC50 values) [fold],IC50 (PRMT7) [µM],IC50 (PRMT5/MEP50 complex) [µM],IC50 (PRMT6) [µM],IC50 (PRMT8) [µM],IC50 (PRMT3) [µM],SMILES,proliferation (MCF-7 cells),PRMT4-catalyzed arginine methylation levels [1],cell permeability [2]
9.3,,,,,,,,,COC(=O)c1cc(O)c2cc(NC(=O)NCCCCNC(=N)NC/C=C/[C@H]3O[C@@H](n4cnc5c(N)ncnc54)[C@H](O)[C@@H]3O)ccc2c1 [1h],marked reduction,evident reduction,low
2.47,> 100,22.8,3,0.54,9.4,70,42,> 100,"COC(=O)c1cc(O)c2cc(NC(=O)NCCNC(=N)NC[C@H]3O[C@@H](n4cnc5c(N)ncnc54)[C@H](O)[C@@H]3O)ccc2c1 [1i, Methyl 6-(3-(2-(3-(((2R,3S,4R,5R)-5-(6-Amino-9H-purin-9-yl)-3,4-dihydroxytetrahydrofuran-2-yl)methyl)guanidino)ethyl)ureido)-4-hydroxy-2-naphthoate]",,,
